This is an account of results in patent publication US9114149B2, “[CU(thp)4]n[X]-n compounds for the treatment of a broad range of human solid tumors, including refractory tumors” (Universita Degli Studi Di Padova, priority 2011, dated 2015).

Experiment [1] relates to human colon adenocarcinoma cells resistant (HCT-116 OXP) to OXP.
In experiment [2] the test system is OE19. Kind of experiment: MTT cytotoxicity, OE19 (oesophagus/gastric cardia). It is filed as cell-based, human. The settings on record: MTT test, 72 hrs. The source says: (§1) The in vitro antitumor activity of CP had been deeply evaluated in several human cancer cell lines by in vitro cytotoxicity assays. CP cytotoxicity has been detected in a large panel of human cell lines derived from a wide variety of solid tumors, including refractory tumors. In Table 1, the cytotoxicity parameters IC50 (that is the median growth inhibitory concentrations calculated from dose-survival curves via MTT test) are tabulated.
(§2) Cell lines representative of lung (H157, U1810, U1285, Calu-1), pancreas (MIA PaCa-2, BxPC-3, AsPC-1, Capan-1), liver (Huh-7, Hep 3B, SK-Hep-1), oesophagus (OE33, OE21), oesophagus/gastric cardia (OE19), stomach (BGC-823, AGS), colon (HCT-116, T84, COLO 205), breast (MDA-MB-231, SK-BR-3), cervix (CaSki, C-33 A) ovarian (A2780, SK-OV-3, IGROV1), prostate (LnCaP, PC-3) cancers along with melanoma (MEWO, G361, C-32), neuroblastoma (SH-SY5Y, SK-N-AS, IMR-32) and osteosarcoma (U-2 OS, MG-63) have been treated with increasing concentration of CP for 72 hrs.
(Tetrazolium dyes change colour on reduction, which living cells bring about.)

The subject of experiment [3] is T84. The experiment is described as follows: MTT cytotoxicity, T84 (colon). The settings on record: MTT test, 72 hrs. It counts as cell-based, human.
Excerpt: as §1, §2

Experiment [4] concerns SK-BR-3. Kind of experiment: MTT cytotoxicity, SK-BR-3 (breast). The settings on record: MTT test, 72 hrs. It is filed as cell-based, human.
Excerpt: as §1, §2

The subject of experiment [5] is human foreskin (HFFF2) fibroblasts. Kind of experiment: Cytotoxicity towards human non-tumor cells, HFFF2. As to conditions: MTT test, 72 hrs. It is filed as cell-based.
Experiment [6] concerns AGS. The experiment is described as follows: MTT cytotoxicity, AGS (stomach). It counts as cell-based, human. As to conditions: MTT test, 72 hrs.
Excerpt: as §1, §2

Experiment [7] deals with C-32. The experiment is described as follows: MTT cytotoxicity, C-32 (skin). As to conditions: MTT test, 72 hrs. It is filed as cell-based, human.
Excerpt: as §1, §2

For experiment [8], the system named is Hep 3B. Kind of experiment: MTT cytotoxicity, Hep 3B (liver). It counts as cell-based, human. As to conditions: MTT test, 72 hrs.
Excerpt: as §1, §2

The subject of experiment [9] is AsPC-1. Kind of experiment: MTT cytotoxicity, AsPC-1 (pancreas). It counts as cell-based, human. As to conditions: MTT test, 72 hrs.
Excerpt: as §1, §2

The test system of experiment [10] is CaSki. The experiment is described as follows: MTT cytotoxicity, CaSki (cervix). It is filed as cell-based, human. The settings on record: MTT test, 72 hrs.
Excerpt: as §1, §2

For experiment [11], the system named is IGROV1. Kind of experiment: MTT cytotoxicity, IGROV1 (ovary). It is filed as cell-based, human. As to conditions: MTT test, 72 hrs.
Excerpt: as §1, §2

The test system of experiment [12] is human colon adenocarcinoma cells sensitive (HCT-116). The experiment is described as follows: Cross resistance MTT test, HCT-116 (OXP sensitive). It counts as cell-based. As to conditions: 72 h, probit analysis.
Experiment [13] concerns MIA PaCa-2. Kind of experiment: MTT cytotoxicity, MIA PaCa-2 (pancreas). It is filed as cell-based, human. The settings on record: MTT test, 72 hrs.
Excerpt: as §1, §2

Experiment [14] concerns Calu-1. The experiment is described as follows: MTT cytotoxicity, Calu-1 (lung). It counts as cell-based, human. The settings on record: MTT test, 72 hrs.
Excerpt: as §1, §2

Experiment [15] has as its system BxPC-3. Kind of experiment: MTT cytotoxicity, BxPC-3 (pancreas). It is filed as cell-based, human. As to conditions: MTT test, 72 hrs.
Excerpt: as §1, §2

The subject of experiment [16] is COLO 205. The experiment is described as follows: MTT cytotoxicity, COLO 205 (colon). It is filed as cell-based, human. As to conditions: MTT test, 72 hrs.
Excerpt: as §1, §2

For experiment [17], the system named is SK-OV-3. The experiment is described as follows: MTT cytotoxicity, SK-OV-3 (ovary). It is filed as cell-based, human. The settings on record: MTT test, 72 hrs.
Excerpt: as §1, §2

Experiment [18] deals with Capan-1. Kind of experiment: MTT cytotoxicity, Capan-1 (pancreas). It counts as cell-based, human. As to conditions: MTT test, 72 hrs.
Excerpt: as §1, §2

Experiment [19] deals with HCT-116. Kind of experiment: MTT cytotoxicity, HCT-116 (colon). As to conditions: MTT test, 72 hrs. It counts as cell-based, human.
Excerpt: as §1, §2

Experiment [20] deals with MDA-MB-231. Kind of experiment: MTT cytotoxicity, MDA-MB-231 (breast). It is filed as cell-based, human. As to conditions: MTT test, 72 hrs.
Excerpt: as §1, §2

Experiment [21] has as its system PC-3. Kind of experiment: MTT cytotoxicity, PC-3 (prostate). It counts as cell-based, human. As to conditions: MTT test, 72 hrs.
Excerpt: as §1, §2

In experiment [22] the test system is A2780. Kind of experiment: MTT cytotoxicity, A2780 (ovary). The settings on record: MTT test, 72 hrs. It is filed as cell-based, human.
Excerpt: as §1, §2

For experiment [23], the system named is G361. The experiment is described as follows: MTT cytotoxicity, G361 (skin). The settings on record: MTT test, 72 hrs. It counts as cell-based, human.
Excerpt: as §1, §2

Experiment [24] relates to human lung (MRC-5) fibroblasts. Kind of experiment: Cytotoxicity towards human non-tumor cells, MRC-5. The settings on record: MRC-5 human lung fibroblasts (non-tumor); MTT test, 72 hrs. It is filed as cell-based.
The subject of experiment [25] is Huh-7. Kind of experiment: MTT cytotoxicity, Huh-7 (liver). It is filed as cell-based, human. As to conditions: MTT test, 72 hrs.
Excerpt: as §1, §2

The subject of experiment [26] is MEWO. The experiment is described as follows: MTT cytotoxicity, MEWO (skin). As to conditions: MTT test, 72 hrs. It is filed as cell-based, human.
Excerpt: as §1, §2

Experiment [27] concerns U-2 OS. Kind of experiment: MTT cytotoxicity, U-2 OS (bone). It counts as cell-based, human. The settings on record: MTT test, 72 hrs.
Excerpt: as §1, §2

The subject of experiment [28] is H157. The experiment is described as follows: MTT cytotoxicity, H157 (lung). The settings on record: MTT test, 72 hrs. It is filed as cell-based, human.
Excerpt: as §1, §2

In experiment [29] the test system is SK-Hep-1. Kind of experiment: MTT cytotoxicity, SK-Hep-1 (liver). It counts as cell-based, human. As to conditions: MTT test, 72 hrs.
Excerpt: as §1, §2

Experiment [30] concerns CDDP sensitive and resistant human cancer cell lines. The settings on record: also CDDP resistant cell lines; cited from earlier work.

For the compound `O=C1[O][Pt]2([NH][C@@H]3CCCC[C@H]3[NH]2)[O]C1=O` [OXP, oxaliplatin], the IC50 (usually the concentration that gives 50% inhibition) in experiment [1] (HCT-116 OXP (OXP resistant), MTT test, 72 h, probit analysis) came out at 23.3 ± 1 µM; in experiment [2], 8.76 ± 1.51 µM; in [3] it was 0.33 ± 0.09 µM; in experiment [4] it was 8.98 ± 2.64 µM; in experiment [5] it was 25.5 ± 1.65 µM; in [6], 5.32 ± 1.63 µM. Besides, the IC50 in [7] turned out to be 1.12 ± 0.42 µM; in experiment [8], 4.32 ± 1.33 µM; in experiment [9], 23.2 ± 2.64 µM; in experiment [10] it was 26.1 ± 3.01 µM; in experiment [11], 2.56 ± 2.14 µM; in experiment [12] it was 1.2 ± 0.1 µM. Besides, the IC50 in [13] came out at 16.8 ± 1.89 µM; in experiment [14], 4.23 ± 1.53 µM; in experiment [15], 4.15 ± 1.06 µM; in experiment [16], 21.1 ± 2.66 µM; in experiment [17] it was 1.43 ± 1.03 µM; in experiment [18], 3.17 ± 0.97 µM. Moreover, the 50% inhibitory concentration (IC50) in experiment [19] came out at 0.76 ± 0.58 µM; in [20], 4.35 ± 1.07 µM; in experiment [21], 5.23 ± 1.62 µM; in experiment [22], 0.55 ± 0.22 µM; in experiment [23], 1.14 ± 0.31 µM; in [24], 23.1 ± 1.25 µM. For the same compound, the IC50 in experiment [25] was 1.12 ± 1.05 µM; in experiment [26], 6.43 ± 1.54 µM; in experiment [27] it was 0.72 ± 0.24 µM; in experiment [28] it was 25.3 ± 0.52 µM; in experiment [29] it was 17.8 ± 2.63 µM. In experiment [1] (IC50 resistant/parent line: HCT-116 OXP / HCT-116), the “R.F. (Resistant factor)” value was 19.4.

Consider `Cc1cc(C)n(C(C(=O)[O][Cu]([PH](CO)(CO)CO)[PH](CO)(CO)CO)n2nc(C)cc2C)n1` [[HC(CO2)(pz^Me2)2]Cu[P(CH2OH)3]2], for which, in [30], the “antitumor activity in vitro” value is “significant antitumor activity in vitro”.
